For two compounds, IC50, EC50 and AC50 results are on record in ChEMBL document CHEMBL1201862, “PubChem BioAssay data set” (2004).

Experiment [1] has as its target T1, Rac GTPase-activating protein 1 (Homo sapiens, UniProt Q9H0H5).
T1 sequence (Q9H0H5 whole entry): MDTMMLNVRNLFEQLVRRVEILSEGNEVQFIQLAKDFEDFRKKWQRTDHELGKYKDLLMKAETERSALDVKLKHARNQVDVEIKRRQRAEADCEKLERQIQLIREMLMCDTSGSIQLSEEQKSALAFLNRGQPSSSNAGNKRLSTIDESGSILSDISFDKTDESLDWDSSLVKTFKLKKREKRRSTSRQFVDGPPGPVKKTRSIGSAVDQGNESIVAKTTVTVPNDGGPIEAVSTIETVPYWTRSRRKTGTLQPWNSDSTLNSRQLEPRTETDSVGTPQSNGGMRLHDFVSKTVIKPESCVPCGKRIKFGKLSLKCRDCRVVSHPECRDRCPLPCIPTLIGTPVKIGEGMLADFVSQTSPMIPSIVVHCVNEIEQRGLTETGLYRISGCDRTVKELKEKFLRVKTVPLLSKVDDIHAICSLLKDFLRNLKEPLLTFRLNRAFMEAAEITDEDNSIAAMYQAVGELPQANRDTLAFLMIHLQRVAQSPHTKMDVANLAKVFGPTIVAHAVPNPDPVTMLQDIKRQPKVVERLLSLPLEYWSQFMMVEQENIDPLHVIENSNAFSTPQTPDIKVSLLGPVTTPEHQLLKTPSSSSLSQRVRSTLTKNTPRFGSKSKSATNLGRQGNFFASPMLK
The experiment can be described thus: MgcRacGAP GTPase-activating activity inhibitors, confirmation, biochemical, ADP Hunter fluorescence, primary and confirmatory (AID 624330). The class given is functional.

For experiment [2], the target named is T2, Ubiquitin-conjugating enzyme E2 N (Homo sapiens, UniProt P61088).
T2 sequence (P61088 whole entry): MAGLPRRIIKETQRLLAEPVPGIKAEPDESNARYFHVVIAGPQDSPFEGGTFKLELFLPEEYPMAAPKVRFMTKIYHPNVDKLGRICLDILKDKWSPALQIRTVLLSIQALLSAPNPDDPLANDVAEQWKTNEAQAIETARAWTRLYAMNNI
The class given is functional.

Another experiment concerns Vero. The experiment is described as follows: cells. The class given is functional, cell-based. The conditions noted are these: Chlorocebus sabaeus.
The target in a further experiment is T3, Bcl-2-related protein A1 (Mus musculus, UniProt Q07440).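 Further: confirmatory dose–response counterscreen on Bfl-1, used to check hits from a UBC13 polyubiquitin inhibitor campaign.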
T3 sequence (Q07440 whole entry): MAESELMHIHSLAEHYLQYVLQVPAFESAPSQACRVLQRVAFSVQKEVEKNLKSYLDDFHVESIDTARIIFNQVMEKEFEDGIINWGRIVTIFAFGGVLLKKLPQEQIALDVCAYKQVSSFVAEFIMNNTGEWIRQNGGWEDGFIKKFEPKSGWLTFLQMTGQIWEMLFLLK
The class given is functional.

In experiment [3] the target is Beta-2 adrenergic receptor (Homo sapiens, UniProt P07550). The experiment can be described thus: beta2AR agonists driving receptor internalization, dose response, cell-based, FAP fluorogen, flow cytometry, cherry pick 1 (AID 588763). The class given is functional. (Flow cytometry measures light scatter and fluorescence of single cells or particles in a stream.)
Experiment [4] deals with T4, DNA repair and recombination protein RAD54-like (Homo sapiens, UniProt Q92698).
T4 sequence (Q92698 whole entry): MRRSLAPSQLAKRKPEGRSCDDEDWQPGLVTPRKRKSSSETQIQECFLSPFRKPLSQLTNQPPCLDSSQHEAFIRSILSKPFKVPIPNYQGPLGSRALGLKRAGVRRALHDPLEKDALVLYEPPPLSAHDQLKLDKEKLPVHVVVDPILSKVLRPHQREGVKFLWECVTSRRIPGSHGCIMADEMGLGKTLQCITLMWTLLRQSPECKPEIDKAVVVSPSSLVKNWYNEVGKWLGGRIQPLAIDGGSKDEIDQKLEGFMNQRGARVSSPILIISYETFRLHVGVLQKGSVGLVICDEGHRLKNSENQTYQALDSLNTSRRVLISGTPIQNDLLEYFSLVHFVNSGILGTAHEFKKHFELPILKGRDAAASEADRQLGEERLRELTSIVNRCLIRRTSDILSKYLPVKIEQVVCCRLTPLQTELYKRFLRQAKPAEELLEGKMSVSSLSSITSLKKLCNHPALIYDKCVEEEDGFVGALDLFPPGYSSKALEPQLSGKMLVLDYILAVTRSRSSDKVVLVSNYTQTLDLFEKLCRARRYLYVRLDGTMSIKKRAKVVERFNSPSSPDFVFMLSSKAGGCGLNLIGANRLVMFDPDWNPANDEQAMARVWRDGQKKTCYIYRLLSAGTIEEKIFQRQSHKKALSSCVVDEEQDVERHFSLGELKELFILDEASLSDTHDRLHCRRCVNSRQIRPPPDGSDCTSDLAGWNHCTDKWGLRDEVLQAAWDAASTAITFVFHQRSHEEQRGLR
The experiment is described as follows: inhibitors of human RAD54 branch migration, confirmation, biochemical, fluorescence, cherry-picked samples, dose series (AID 651657). The format is functional.

In experiment [5] the target is T5, Apoptotic protease-activating factor 1 (Homo sapiens, UniProt O14727).
T5 sequence (O14727 whole entry): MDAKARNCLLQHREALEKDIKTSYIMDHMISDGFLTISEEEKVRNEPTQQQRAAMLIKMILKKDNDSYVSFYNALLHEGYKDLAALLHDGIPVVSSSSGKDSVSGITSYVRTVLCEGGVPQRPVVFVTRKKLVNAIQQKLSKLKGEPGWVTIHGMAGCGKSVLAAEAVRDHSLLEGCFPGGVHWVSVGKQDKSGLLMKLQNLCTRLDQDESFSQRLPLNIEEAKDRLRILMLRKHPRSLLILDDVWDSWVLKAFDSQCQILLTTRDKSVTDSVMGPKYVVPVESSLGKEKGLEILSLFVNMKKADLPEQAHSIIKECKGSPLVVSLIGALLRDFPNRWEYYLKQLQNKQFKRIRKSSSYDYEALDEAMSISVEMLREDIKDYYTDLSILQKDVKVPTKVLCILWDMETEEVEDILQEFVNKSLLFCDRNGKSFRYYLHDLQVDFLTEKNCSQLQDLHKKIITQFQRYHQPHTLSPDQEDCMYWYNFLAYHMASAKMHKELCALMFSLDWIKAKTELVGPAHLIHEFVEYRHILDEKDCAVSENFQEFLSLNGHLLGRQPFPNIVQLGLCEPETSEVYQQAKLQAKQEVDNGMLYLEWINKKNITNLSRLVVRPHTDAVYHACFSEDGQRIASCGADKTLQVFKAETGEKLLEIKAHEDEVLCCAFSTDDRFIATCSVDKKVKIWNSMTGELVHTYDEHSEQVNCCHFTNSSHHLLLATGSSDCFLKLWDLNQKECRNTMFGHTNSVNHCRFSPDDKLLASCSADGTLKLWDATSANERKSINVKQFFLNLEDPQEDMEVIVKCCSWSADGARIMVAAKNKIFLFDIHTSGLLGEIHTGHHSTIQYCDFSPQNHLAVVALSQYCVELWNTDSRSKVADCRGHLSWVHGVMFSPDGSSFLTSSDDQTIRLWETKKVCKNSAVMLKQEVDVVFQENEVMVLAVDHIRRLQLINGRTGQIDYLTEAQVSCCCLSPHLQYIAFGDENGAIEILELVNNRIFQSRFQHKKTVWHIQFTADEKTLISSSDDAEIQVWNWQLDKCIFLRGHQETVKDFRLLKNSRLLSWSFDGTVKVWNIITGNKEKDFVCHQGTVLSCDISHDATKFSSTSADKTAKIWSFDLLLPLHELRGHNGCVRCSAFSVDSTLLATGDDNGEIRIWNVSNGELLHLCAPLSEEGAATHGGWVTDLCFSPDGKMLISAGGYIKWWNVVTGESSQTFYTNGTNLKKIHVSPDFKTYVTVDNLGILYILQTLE
The class given is functional.

In experiment [6] the target is T2, Ubiquitin-conjugating enzyme E2 N. The class given is functional. This is another data set of the same source.
Another experiment concerns the target T6, Caspase-3 (Homo sapiens, UniProt P42574).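 Further: Dose-response selectivity test against caspase-3 for candidate inhibitors of sentrin-specific proteases (SENPs).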
T6 sequence (P42574 whole entry): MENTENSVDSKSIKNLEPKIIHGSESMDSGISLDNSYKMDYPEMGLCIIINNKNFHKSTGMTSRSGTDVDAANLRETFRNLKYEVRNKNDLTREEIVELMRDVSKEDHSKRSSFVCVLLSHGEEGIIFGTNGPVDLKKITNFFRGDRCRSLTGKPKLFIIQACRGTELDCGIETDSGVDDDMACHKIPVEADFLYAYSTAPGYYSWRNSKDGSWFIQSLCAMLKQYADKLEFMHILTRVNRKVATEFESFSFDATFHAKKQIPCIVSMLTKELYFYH
The format is functional.

The target of experiment [7] is T7, Sentrin-specific protease 7 (Homo sapiens, UniProt Q9BQF6).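 Further: Luminescence-based dose-response confirmation of ultra-high-throughput screening hits, measuring inhibition of SENP7.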
T7 sequence (Q9BQF6 whole entry): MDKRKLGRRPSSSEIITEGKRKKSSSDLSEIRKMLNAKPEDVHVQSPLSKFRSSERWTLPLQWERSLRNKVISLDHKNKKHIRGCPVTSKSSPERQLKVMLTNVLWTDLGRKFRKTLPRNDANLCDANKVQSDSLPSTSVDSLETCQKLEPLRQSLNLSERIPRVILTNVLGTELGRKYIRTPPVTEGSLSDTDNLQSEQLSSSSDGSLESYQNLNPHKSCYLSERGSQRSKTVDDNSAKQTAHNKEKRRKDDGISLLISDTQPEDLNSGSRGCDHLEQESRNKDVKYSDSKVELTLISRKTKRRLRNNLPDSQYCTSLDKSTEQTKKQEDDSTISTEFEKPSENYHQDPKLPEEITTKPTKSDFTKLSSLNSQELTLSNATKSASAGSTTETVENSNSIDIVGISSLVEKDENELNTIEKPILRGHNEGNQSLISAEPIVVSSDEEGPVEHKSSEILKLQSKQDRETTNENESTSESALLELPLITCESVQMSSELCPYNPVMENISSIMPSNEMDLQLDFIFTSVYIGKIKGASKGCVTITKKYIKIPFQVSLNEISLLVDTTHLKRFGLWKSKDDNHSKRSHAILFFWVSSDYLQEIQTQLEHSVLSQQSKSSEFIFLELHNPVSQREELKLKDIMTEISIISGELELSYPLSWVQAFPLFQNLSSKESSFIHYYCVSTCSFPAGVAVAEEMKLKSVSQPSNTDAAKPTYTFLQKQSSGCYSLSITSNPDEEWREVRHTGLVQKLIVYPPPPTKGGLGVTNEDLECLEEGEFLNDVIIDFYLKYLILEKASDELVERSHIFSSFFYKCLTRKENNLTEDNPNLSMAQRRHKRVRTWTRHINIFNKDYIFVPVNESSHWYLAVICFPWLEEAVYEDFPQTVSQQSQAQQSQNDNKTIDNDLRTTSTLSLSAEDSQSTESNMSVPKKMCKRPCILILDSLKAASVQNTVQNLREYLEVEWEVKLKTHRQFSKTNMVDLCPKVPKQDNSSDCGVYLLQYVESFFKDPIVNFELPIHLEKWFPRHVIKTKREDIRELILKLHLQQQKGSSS
The format is functional.

Experiment [8] addresses T8, Sentrin-specific protease 6 (Homo sapiens, UniProt Q9GZR1).
T8 sequence (Q9GZR1 whole entry): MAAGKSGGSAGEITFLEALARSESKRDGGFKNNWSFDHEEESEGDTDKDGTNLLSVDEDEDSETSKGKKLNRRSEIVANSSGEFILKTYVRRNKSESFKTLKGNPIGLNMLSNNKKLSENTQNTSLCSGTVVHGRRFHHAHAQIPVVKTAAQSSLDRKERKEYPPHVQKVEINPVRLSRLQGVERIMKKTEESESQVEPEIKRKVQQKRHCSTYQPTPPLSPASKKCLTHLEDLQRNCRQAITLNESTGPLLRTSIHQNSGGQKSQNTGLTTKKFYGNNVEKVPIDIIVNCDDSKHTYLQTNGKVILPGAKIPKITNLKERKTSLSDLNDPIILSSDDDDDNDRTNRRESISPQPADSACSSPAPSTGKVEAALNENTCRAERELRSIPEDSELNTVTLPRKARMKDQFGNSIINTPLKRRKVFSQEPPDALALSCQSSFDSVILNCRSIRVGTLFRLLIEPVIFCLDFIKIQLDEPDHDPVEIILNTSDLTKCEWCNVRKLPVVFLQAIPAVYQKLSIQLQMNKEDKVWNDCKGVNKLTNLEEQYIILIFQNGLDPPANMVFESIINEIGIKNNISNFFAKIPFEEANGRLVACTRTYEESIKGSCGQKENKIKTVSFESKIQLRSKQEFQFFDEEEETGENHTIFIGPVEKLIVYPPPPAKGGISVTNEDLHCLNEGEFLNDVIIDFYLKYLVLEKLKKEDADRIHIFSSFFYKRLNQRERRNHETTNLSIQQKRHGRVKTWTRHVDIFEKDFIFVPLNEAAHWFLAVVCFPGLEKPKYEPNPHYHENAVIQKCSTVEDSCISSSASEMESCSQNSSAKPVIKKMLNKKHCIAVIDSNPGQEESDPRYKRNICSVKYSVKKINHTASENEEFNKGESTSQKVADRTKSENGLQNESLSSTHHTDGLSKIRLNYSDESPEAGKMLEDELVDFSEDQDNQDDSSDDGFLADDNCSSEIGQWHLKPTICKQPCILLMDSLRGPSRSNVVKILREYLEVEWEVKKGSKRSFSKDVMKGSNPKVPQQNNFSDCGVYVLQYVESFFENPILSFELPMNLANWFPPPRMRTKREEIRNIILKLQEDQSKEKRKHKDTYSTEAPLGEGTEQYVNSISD
The format is functional.

The target in experiment [9] is T9, Sentrin-specific protease 8 (Homo sapiens, UniProt Q96LD8).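 Further: luminescence read-out of SENP8 inhibition, dose-response confirmation following an ultra-high-throughput screen.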
T9 sequence (Q96LD8 whole entry): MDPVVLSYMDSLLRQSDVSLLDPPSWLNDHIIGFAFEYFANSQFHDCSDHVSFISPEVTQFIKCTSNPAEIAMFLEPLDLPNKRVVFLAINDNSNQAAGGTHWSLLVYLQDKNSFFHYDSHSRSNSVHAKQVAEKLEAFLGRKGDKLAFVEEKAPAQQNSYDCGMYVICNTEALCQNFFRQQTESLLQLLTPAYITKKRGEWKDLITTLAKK
The format is functional.

The source made the active and inactive calls. For most assays here, no stated cut-off is given here; in the data, actives have a measured IC50 and inactives only a lower limit.

Beta-2 adrenergic receptor, sequence (P07550 whole entry): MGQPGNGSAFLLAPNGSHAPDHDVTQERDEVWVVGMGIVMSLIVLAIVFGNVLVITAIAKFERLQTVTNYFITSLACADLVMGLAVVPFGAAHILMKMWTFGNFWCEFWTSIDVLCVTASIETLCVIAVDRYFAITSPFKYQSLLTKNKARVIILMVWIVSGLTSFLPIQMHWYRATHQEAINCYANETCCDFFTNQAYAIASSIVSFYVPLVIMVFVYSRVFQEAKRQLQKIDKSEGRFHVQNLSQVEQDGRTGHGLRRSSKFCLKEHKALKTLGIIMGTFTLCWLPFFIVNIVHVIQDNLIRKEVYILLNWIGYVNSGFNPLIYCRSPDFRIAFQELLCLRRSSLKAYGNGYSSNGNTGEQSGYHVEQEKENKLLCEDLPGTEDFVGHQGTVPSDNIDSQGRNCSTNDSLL

A word on the IC50: it is the concentration needed to halve the response being measured. By EC50 is commonly meant the concentration at which the effect is half-maximal. The term AC50 denotes the midpoint of the concentration-response curve, whichever way the signal moves. As for `COc1cc2nc(N3CCNCC3)nc(N)c2cc1OC`, the IC50 is 63.1 µM (active) in [1]; 1.5 µM (active) in experiment [2]; 22.4 µM (active) with Vero; 11.1 µM (active) on Bcl-2-related protein A1; 31.5 µM (active) in experiment [5]; 0.873 µM (active) in experiment [6]. The EC50 in experiment [3] was 8.61 µM (inactive). Further, in experiment [4], the AC50 is 1.49 µM (active).

Consider `O=C(CCc1ccccc1)c1ccc2c(c1)OCCCO2`, for which the IC50 at Caspase-3 is 28.9 µM (active); in experiment [7], 9.59 µM (active); in experiment [8], 32.8 µM (active); in experiment [9] it was 27.3 µM (active).
